Experimental data reported in ChEMBL document CHEMBL1649138, “In vitro activity of Isavuconazole against Aspergillus species and zygomycetes according to the methodology of the European Committee on Antimicrobial Susceptibility Testing” (Antimicrob Agents Chemother, 2009).
Values after ≈ are worked out from the molar mass of the structure shown.

How the values were obtained:
Aspergillus fumigatus [1] = assay: Antifungal activity against Aspergillus fumigatus by EUCAST method; assay type: functional
Aspergillus terreus [2] = assay: Antifungal activity against amphotericin B-resistant Aspergillus terreus by EUCAST method; assay type: functional
Aspergillus flavus [3] = assay: Antifungal activity against Aspergillus flavus by EUCAST method; assay type: functional
Aspergillus niger [4] = assay: Antifungal activity against Aspergillus niger by EUCAST method; assay type: functional
Rhizomucor [5] = assay: Antifungal activity against Rhizomucor by EUCAST method; assay type: functional
Absidia [6] = assay: Antifungal activity against Absidia by EUCAST method; assay type: functional
Rhizopus [7] = assay: Antifungal activity against Rhizopus by EUCAST method; assay type: functional
Mucor [8] = assay: Antifungal activity against Mucor by EUCAST method; assay type: functional
Cunninghamella [9] = assay: Antifungal activity against Cunninghamella by EUCAST method; assay type: functional
Aspergillus fumigatus [10] = assay: Antifungal activity against Aspergillus fumigatus hyphae by EUCAST method; assay type: functional
Aspergillus terreus [11] = assay: Antifungal activity against amphotericin B-resistant Aspergillus terreus hyphae by EUCAST method; assay type: functional
Aspergillus flavus [12] = assay: Antifungal activity against Aspergillus flavus hyphae by EUCAST method; assay type: functional
Aspergillus niger [13] = assay: Antifungal activity against Aspergillus niger hyphae by EUCAST method; assay type: functional
Rhizomucor [14] = assay: Antifungal activity against Rhizomucor hyphae by EUCAST method; assay type: functional
Absidia [15] = assay: Antifungal activity against Absidia hyphae by EUCAST method; assay type: functional
Rhizopus [16] = assay: Antifungal activity against Rhizopus hyphae by EUCAST method; assay type: functional
Mucor [17] = assay: Antifungal activity against Mucor hyphae by EUCAST method; assay type: functional
Cunninghamella [18] = assay: Antifungal activity against Cunninghamella hyphae by EUCAST method; assay type: functional
Aspergillus fumigatus [19] = assay: Fungicidal activity against Aspergillus fumigatus; assay type: functional
Aspergillus terreus [20] = assay: Fungicidal activity against amphotericin B-resistant Aspergillus terreus; assay type: functional
Aspergillus flavus [21] = assay: Fungicidal activity against Aspergillus flavus; assay type: functional
Aspergillus niger [22] = assay: Fungicidal activity against Aspergillus niger; assay type: functional
Rhizomucor [23] = assay: Fungicidal activity against Rhizomucor; assay type: functional
Absidia [24] = assay: Fungicidal activity against Absidia; assay type: functional
Rhizopus [25] = assay: Fungicidal activity against Rhizopus; assay type: functional
Mucor [26] = assay: Fungicidal activity against Mucor; assay type: functional
Cunninghamella [27] = assay: Fungicidal activity against Cunninghamella; assay type: functional
Aspergillus fumigatus [28] = assay: Antifungal activity against Aspergillus fumigatus by broth microdilution method; assay type: functional
Aspergillus flavus [29] = assay: Antifungal activity against Aspergillus flavus by broth microdilution method; assay type: functional
Aspergillus terreus [30] = assay: Antifungal activity against amphotericin B-resistant Aspergillus terreus by broth microdilution method; assay type: functional
Aspergillus niger [31] = assay: Antifungal activity against Aspergillus niger by broth microdilution method; assay type: functional
Plasma = assay: Plasma concentration in human; assay type: ADME, cell-free

C[C@@H](c1nc(-c2ccc(C#N)cc2)cs1)[C@](O)(Cn1cncn1)c1cc(F)ccc1F [ISAVUCONAZOLE]
MIC50 (Aspergillus fumigatus [1]): 1 µg/mL (≈ 2.29 µM)
MIC90 (Aspergillus fumigatus [1]): 1 µg/mL (≈ 2.29 µM)
MIC50 (Aspergillus terreus [2]): 0.5 µg/mL (≈ 1.14 µM)
MIC90 (Aspergillus terreus [2]): 2 µg/mL (≈ 4.57 µM)
MIC50 (Aspergillus flavus [3]): 1 µg/mL (≈ 2.29 µM)
MIC90 (Aspergillus flavus [3]): 2 µg/mL (≈ 4.57 µM)
MIC50 (Aspergillus niger [4]): 2 µg/mL (≈ 4.57 µM)
MIC90 (Aspergillus niger [4]): 4 µg/mL (≈ 9.14 µM)
MIC50 (Rhizomucor [5]): > 8 µg/mL
MIC90 (Rhizomucor [5]): > 8 µg/mL
MIC50 (Absidia [6]): 4 µg/mL (≈ 9.14 µM)
MIC90 (Absidia [6]): > 8 µg/mL
MIC50 (Rhizopus [7]): 4 µg/mL (≈ 9.14 µM)
MIC90 (Rhizopus [7]): > 8 µg/mL
MIC50 (Mucor [8]): > 8 µg/mL
MIC90 (Mucor [8]): > 8 µg/mL
MIC50 (Cunninghamella [9]): 4 µg/mL (≈ 9.14 µM)
MIC90 (Cunninghamella [9]): > 8 µg/mL
MIC90 (Aspergillus fumigatus [10]): 1 µg/mL (≈ 2.29 µM)
MIC90 (Aspergillus terreus [11]): 2 µg/mL (≈ 4.57 µM)
MIC90 (Aspergillus flavus [12]): 2 µg/mL (≈ 4.57 µM)
MIC90 (Aspergillus niger [13]): 8 µg/mL (≈ 18.3 µM)
MIC90 (Rhizomucor [14]): > 8 µg/mL
MIC90 (Absidia [15]): > 8 µg/mL
MIC90 (Rhizopus [16]): > 8 µg/mL
MIC90 (Mucor [17]): > 8 µg/mL
MIC90 (Cunninghamella [18]): > 8 µg/mL
MIC (Aspergillus fumigatus [19]): 1 µg/mL (≈ 2.29 µM)
MIC90 (Aspergillus fumigatus [19]): 1 µg/mL (≈ 2.29 µM)
MIC90 (Aspergillus terreus [20]): 2 µg/mL (≈ 4.57 µM)
MIC90 (Aspergillus flavus [21]): 2 µg/mL (≈ 4.57 µM)
MIC90 (Aspergillus niger [22]): > 8 µg/mL
MIC90 (Rhizomucor [23]): > 8 µg/mL
MIC90 (Absidia [24]): > 8 µg/mL
MIC90 (Rhizopus [25]): > 8 µg/mL
MIC90 (Mucor [26]): > 8 µg/mL
MIC90 (Cunninghamella [27]): > 8 µg/mL
MIC (Aspergillus fumigatus [28]): 0.63 µg/mL (≈ 1.44 µM)
MIC (Aspergillus flavus [29]): 0.76 µg/mL (≈ 1.74 µM)
MIC (Aspergillus terreus [30]): 0.68 µg/mL (≈ 1.55 µM)
MIC (Aspergillus niger [31]): 2.36 µg/mL (≈ 5.39 µM)
Cp (Plasma): > 1700 ng/mL

CC[C@@H]([C@H](C)O)n1ncn(-c2ccc(N3CCN(c4ccc(OC[C@@H]5CO[C@@](Cn6cncn6)(c6ccc(F)cc6F)C5)cc4)CC3)cc2)c1=O [POSACONAZOLE]
MIC50 (Aspergillus fumigatus [1]): 0.5 µg/mL (≈ 0.713 µM)
MIC90 (Aspergillus fumigatus [1]): 1 µg/mL (≈ 1.43 µM)
MIC (Aspergillus terreus [2]): 0.125 µg/mL (≈ 0.178 µM)
MIC50 (Aspergillus terreus [2]): 0.125 µg/mL (≈ 0.178 µM)
MIC90 (Aspergillus terreus [2]): 0.5 µg/mL (≈ 0.713 µM)
MIC50 (Aspergillus flavus [3]): 0.125 µg/mL (≈ 0.178 µM)
MIC90 (Aspergillus flavus [3]): 0.5 µg/mL (≈ 0.713 µM)
MIC (Aspergillus niger [4]): 0.25 µg/mL (≈ 0.357 µM)
MIC50 (Aspergillus niger [4]): 0.25 µg/mL (≈ 0.357 µM)
MIC90 (Aspergillus niger [4]): 0.5 µg/mL (≈ 0.713 µM)
MIC (Rhizomucor [5]): 1 µg/mL (≈ 1.43 µM)
MIC50 (Rhizomucor [5]): 1 µg/mL (≈ 1.43 µM)
MIC90 (Rhizomucor [5]): 4 µg/mL (≈ 5.71 µM)
MIC (Absidia [6]): 0.5 µg/mL (≈ 0.713 µM)
MIC50 (Absidia [6]): 0.5 µg/mL (≈ 0.713 µM)
MIC90 (Absidia [6]): 1 µg/mL (≈ 1.43 µM)
MIC50 (Rhizopus [7]): 2 µg/mL (≈ 2.85 µM)
MIC90 (Rhizopus [7]): 4 µg/mL (≈ 5.71 µM)
MIC50 (Mucor [8]): 1 µg/mL (≈ 1.43 µM)
MIC90 (Mucor [8]): 1 µg/mL (≈ 1.43 µM)
MIC (Cunninghamella [9]): 1 µg/mL (≈ 1.43 µM)
MIC50 (Cunninghamella [9]): 1 µg/mL (≈ 1.43 µM)
MIC90 (Cunninghamella [9]): 1 µg/mL (≈ 1.43 µM)
MIC90 (Aspergillus fumigatus [10]): 0.5 µg/mL (≈ 0.713 µM)
MIC90 (Aspergillus terreus [11]): 1 µg/mL (≈ 1.43 µM)
MIC90 (Aspergillus flavus [12]): 1 µg/mL (≈ 1.43 µM)
MIC (Aspergillus niger [13]): 1 µg/mL (≈ 1.43 µM)
MIC90 (Aspergillus niger [13]): 1 µg/mL (≈ 1.43 µM)
MIC90 (Rhizomucor [14]): 8 µg/mL (≈ 11.4 µM)
MIC (Absidia [15]): 4 µg/mL (≈ 5.71 µM)
MIC90 (Absidia [15]): 4 µg/mL (≈ 5.71 µM)
MIC90 (Rhizopus [16]): > 8 µg/mL
MIC90 (Mucor [17]): > 8 µg/mL
MIC90 (Cunninghamella [18]): 8 µg/mL (≈ 11.4 µM)
MIC90 (Aspergillus fumigatus [19]): 2 µg/mL (≈ 2.85 µM)
MIC90 (Aspergillus terreus [20]): 2 µg/mL (≈ 2.85 µM)
MIC90 (Aspergillus flavus [21]): 2 µg/mL (≈ 2.85 µM)
MIC90 (Aspergillus niger [22]): 4 µg/mL (≈ 5.71 µM)
MIC90 (Rhizomucor [23]): > 8 µg/mL
MIC (Absidia [24]): 4 µg/mL (≈ 5.71 µM)
MIC90 (Absidia [24]): 4 µg/mL (≈ 5.71 µM)
MIC90 (Rhizopus [25]): > 8 µg/mL
MIC90 (Mucor [26]): > 8 µg/mL
MIC (Cunninghamella [27]): > 8 µg/mL
MIC90 (Cunninghamella [27]): 8 µg/mL (≈ 11.4 µM)

C[C@@H](c1ncncc1F)[C@](O)(Cn1cncn1)c1ccc(F)cc1F [VORICONAZOLE]
MIC50 (Aspergillus fumigatus [1]): 1 µg/mL (≈ 2.86 µM)
MIC90 (Aspergillus fumigatus [1]): 1 µg/mL (≈ 2.86 µM)
MIC50 (Aspergillus terreus [2]): 0.5 µg/mL (≈ 1.43 µM)
MIC90 (Aspergillus terreus [2]): 2 µg/mL (≈ 5.73 µM)
MIC50 (Aspergillus flavus [3]): 1 µg/mL (≈ 2.86 µM)
MIC90 (Aspergillus flavus [3]): 1 µg/mL (≈ 2.86 µM)
MIC50 (Aspergillus niger [4]): 2 µg/mL (≈ 5.73 µM)
MIC90 (Aspergillus niger [4]): 2 µg/mL (≈ 5.73 µM)
MIC (Rhizomucor [5]): > 8 µg/mL
MIC50 (Rhizomucor [5]): > 8 µg/mL
MIC90 (Rhizomucor [5]): > 8 µg/mL
MIC (Absidia [6]): > 8 µg/mL
MIC50 (Absidia [6]): > 8 µg/mL
MIC90 (Absidia [6]): > 8 µg/mL
MIC (Rhizopus [7]): > 8 µg/mL
MIC50 (Rhizopus [7]): > 8 µg/mL
MIC90 (Rhizopus [7]): > 8 µg/mL
MIC (Mucor [8]): > 8 µg/mL
MIC50 (Mucor [8]): > 8 µg/mL
MIC90 (Mucor [8]): > 8 µg/mL
MIC (Cunninghamella [9]): > 8 µg/mL
MIC50 (Cunninghamella [9]): > 8 µg/mL
MIC90 (Cunninghamella [9]): > 8 µg/mL
MIC90 (Aspergillus fumigatus [10]): 1 µg/mL (≈ 2.86 µM)
MIC90 (Aspergillus terreus [11]): 1 µg/mL (≈ 2.86 µM)
MIC90 (Aspergillus flavus [12]): 2 µg/mL (≈ 5.73 µM)
MIC90 (Aspergillus niger [13]): 4 µg/mL (≈ 11.5 µM)
MIC (Rhizomucor [14]): > 8 µg/mL
MIC90 (Rhizomucor [14]): > 8 µg/mL
MIC (Absidia [15]): > 8 µg/mL
MIC90 (Absidia [15]): > 8 µg/mL
MIC (Rhizopus [16]): > 8 µg/mL
MIC90 (Rhizopus [16]): > 8 µg/mL
MIC (Mucor [17]): > 8 µg/mL
MIC90 (Mucor [17]): > 8 µg/mL
MIC (Cunninghamella [18]): > 8 µg/mL
MIC90 (Cunninghamella [18]): > 8 µg/mL
MIC90 (Aspergillus fumigatus [19]): 4 µg/mL (≈ 11.5 µM)
MIC90 (Aspergillus terreus [20]): 2 µg/mL (≈ 5.73 µM)
MIC90 (Aspergillus flavus [21]): 4 µg/mL (≈ 11.5 µM)
MIC90 (Aspergillus niger [22]): 8 µg/mL (≈ 22.9 µM)
MIC (Rhizomucor [23]): > 8 µg/mL
MIC90 (Rhizomucor [23]): > 8 µg/mL
MIC (Absidia [24]): > 8 µg/mL
MIC90 (Absidia [24]): > 8 µg/mL
MIC (Rhizopus [25]): > 8 µg/mL
MIC90 (Rhizopus [25]): > 8 µg/mL
MIC (Mucor [26]): > 8 µg/mL
MIC90 (Mucor [26]): > 8 µg/mL
MIC (Cunninghamella [27]): > 8 µg/mL
MIC90 (Cunninghamella [27]): > 8 µg/mL
